Laboratory results: patent publication US10016376B2, “Composition for alleviating nephrotoxicity caused by immunosuppressive drug, comprising metformin, and composition for preventing or treating immune disease, comprising the same” (THE CATHOLIC UNIVERSITY OF KOREA INDUSTRY-ACADEMIC …, priority 2014, dated 2018)

Columns and labels:
IFN-γ = experiment: ELISA of IFN-γ secreted by allogeneic reactive T cells in mixed lymphocyte culture; type: cell-based, Balb/c; conditions: metformin 200 μM, 3 days
Description: (§1) To examine an effect of metformin and FK506 on the secretion of inflammatory cytokines by allogeneic reactive T cells, the allogeneic reactive T cells were treated with metformin (200 μM) or FK506 (1 nM or 100 nM) according to the experimental conditions, and then cultured for 3 days under the same in vitro allo-response conditions as in <Example 2>. Thereafter, levels of IFN-γ and IL-17 secreted by the T cells in the resulting culture broth were measured using ELISA (FIG. 5). The statistical analysis was carried out using a Graph prism (t-test, ANOVA), and the statistical significance was p<0.05. […] Thereafter, levels of IFN-γ and IL-17 secreted by the T cells in the resulting culture broth were measured using ELISA (FIG. 6). The statistical analysis was carried out using a Graph prism (t-test, ANOVA), and the statistical significance was p<0.05.

TNF-α = TNF-α secreted by LPS-stimulated splenocytes; type: cell-based, C57BL/6 mice; conditions: LPS 100 ng/ml, metformin 200 μM, FK506 100 nM, 3 days; vs control (LPS)
Description: (§2) Concentrations of TNF-α and IL-6 present in the resulting culture broth were measured to compare the drug effects (FIG. 10). Also, a concentration of immunoglobulins (IgG) present in the culture broth was measured in the same cell culture conditions to compare the drug effects (FIG. 11). The statistical analysis was carried out using a Graph prism (t-test, ANOVA), and the statistical significance was p<0.05.

[1] = blood concentration of FK506 in whole blood (LC/MS/MS); type: in vivo; conditions: Sprague-Dawley, rat, subcutaneous; rats, whole blood after 4 weeks; FK506 1.5 mg/kg s.c., with or without metformin 250 mg/kg oral
Description: Thereafter, a blood concentration of FK506 in the collected whole blood was measured using a mass spectrometer (API 3000 LC/MS/MS, Applied Biocystem, Foster City, Calif.).

Treg cells = experiment: flow cytometry of Treg activity under anti-CD3 T cell activation conditions; type: cell-based, C57BL/6 mice; conditions: 3 days; for Treg activity (ratio of Foxp3+CD25+ cells to CD4+ T cells): metformin 200 μM, FK506 100 nM, anti-CD3 1 μg/ml
Description: An effect of metformin and FK506 on the activity of Treg cells under T cell activation conditions (anti-CD3 conditions) was examined (FIGS. 8A and 8B). Splenocytes obtained from normal C57BL/6 mice were seeded in a 24-well plate at a density of 1×10^6 cells/ml, treated with metformin (200 μM) or FK506 (100 nM) according to the experimental conditions, and then cultured for 3 days under anti-CD3 activation conditions (1 μg/ml). For the analysis using a flow cytometer, the cells were treated with an anti-CD4-percp antibody and an anti-CD25-APC antibody, reacted at 4° C. for 30 minutes, permeabilized, reacted with an anti-Foxp3-PE antibody, and then analyzed using the flow cytometer. To analyze the Treg activity, cells expressing a CD4+CD25+Foxp3 marker were gated and analyzed. For the results, the ratio of Foxp3+CD25+ cells to the whole cultured CD4+ T cells was plotted on a bar graph. The statistical analysis was carried out using a Graph prism (t-test, ANOVA), and the statistical significance was p<0.05.

immunoglobulins (IgG) = immunoglobulins (IgG) secreted by LPS-stimulated splenocytes; type: cell-based, C57BL/6 mice; conditions: LPS 100 ng/ml, metformin 200 μM, FK506 100 nM, 3 days; vs control (LPS)
Description: as §2

IL-17 = experiment: ELISA of IL-17 secreted by allogeneic reactive T cells in mixed lymphocyte culture; type: cell-based, Balb/c; conditions: metformin 200 μM, 3 days
Description: as §1

[2] = tested on: allogeneic reactive T cells; experiment: mixed lymphocyte reaction (MLR), [3H]-thymidine uptake; type: cell-based, Balb/c; conditions: vs untreated Allo control
Description: To examine an immunomodulatory effect when T cells were co-treated with metformin and FK506 under in vitro allo-response conditions, an effect of metformin and FK506 on the proliferation of allogeneic reactive T cells was examined using a mixed lymphocyte culture method (i.e., a mixed lymphocyte reaction (MLR)) (FIG. 3). […] In this case, the T cells were treated separately or together with metformin (200 μM) or FK506 (1 nM or 100 nM) according to the experimental conditions, and then cultured for 3 days to stimulate an allogeneic response. On the last day of culture, [^3H]-thymidine was added, and the T cells were additionally cultured for 18 hours. Then, a level of [^3H]-thymidine uptake was measured using a liquid scintillation counter (Beckman, USA), and expressed as a cpm value. The statistical analysis was carried out using a Graph prism (t-test, ANOVA), and the statistical significance was p<0.05.

IL-6 = IL-6 secreted by LPS-stimulated splenocytes; type: cell-based, C57BL/6 mice; conditions: LPS 100 ng/ml, metformin 200 μM, FK506 100 nM, 3 days; vs control (LPS)
Description: as §2

[3] = tested on: Splenocytes obtained from normal C57BL/6 mice; experiment: MTT assay under T cell activation conditions (anti-CD3); conditions: metformin 200 μM, FK506 100 nM, 3 days, anti-CD3 1 μg/ml; vs control (aCD3)
Description: Splenocytes obtained from normal C57BL/6 mice were seeded in a 96-well plate at a density of 2×10^5 cells/ml, treated with metformin (200 μM) or FK506 (100 nM) according to the experimental conditions, and then cultured for 3 days under anti-CD3 activation conditions (1 μg/ml). In the MTT assay, a 3-(4,5dimethyl-thiazol-2-yl)-2,5-diphenyltetrazolium bromide compound was added before 4 hours of cell harvesting, and reacted for 4 hours. Thereafter, each well was treated with DMSO to measure the optical density at a wavelength of 540 nm.

[4] = metformin 200 μM, FK506 1 nM or 100 nM, 3 days

concentration at 4 weeks [1] [ng/mL] | Compound | concentration of IFN-γ in the culture broth (IFN-γ; FK506 1 nM or 100 nM) | concentration of TNF-α in the culture broth (TNF-α) | Treg activity (ratio of Foxp3+CD25+ cells to CD4+ T cells) (Treg cells) | concentration of immunoglobulins (IgG) in the culture broth (immunoglobulins (IgG)) | concentration of IL-17 in the culture broth (IL-17; FK506 1 nM or 100 nM) | proliferation of T cells ([3H]-thymidine uptake) [2, 4] | concentration of IL-6 in the culture broth (IL-6) | concentration of IFN-γ in the culture broth (IFN-γ; CsA 10 nM or 100 nM) | Treg level/activity (ratio of Foxp3+CD25+ cells to CD4+ T cells) (Treg cells; metformin 1 mM, CsA 100 nM, anti-CD3) | concentration of IL-17 in the culture broth (IL-17; CsA 10 nM or 100 nM) | proliferation of T cells ([3H]-thymidine uptake) ([2]; Met 200 μM or 1,000 μM, CsA 10 nM or 100 nM, co-administered metformin 200 μM) | cytotoxicity, optical density at 540 nm (MTT) [3]
10.2 ± 1.3 | C=CC[C@@H]1/C=C(\C)C[C@H](C)C[C@H](OC)[C@H]2O[C@@](O)(C(=O)C(=O)N3CCCC[C@H]3C(=O)O[C@H](/C(C)=C/[C@@H]3CC[C@@H](O)[C@H](OC)C3)[C@H](C)[C@@H](O)CC1=O)[C@H](C)C[C@@H]2OC [FK506, Tacrolimus] | reduced | not highly reduced | increased | not significantly changed | reduced | remarkably reduced in a concentration-dependent manner | not highly reduced | – | – | – | – | –
– | CN(C)C(=N)NC(=N)N [metformin, Metformin] | reduced | not highly reduced | increased | not significantly changed | reduced | suppressed | not highly reduced | reduced | increased | reduced | suppressed | no big difference in optical densities
